Data: US11214803B2, “Modulators of YAP1 expression” (Ionis Pharmaceuticals, Inc., priority 2019, dated 2022)
Strand notation (5' to 3'): a small letter for the sugar, then the base; units joined by * are phosphorothioate-linked, units joined directly phosphodiester-linked; [ ] holds rarer units or linkages, { } end groups; capitals alone tell only the bases. k = constrained ethyl (cEt); [5mC] = 5-methylcytosine; d = 2'-deoxy (DNA)

tested on: Yap1 mRNA; assay: Antisense inhibition of human Yap1 in A-431 cells by cEt gapmers, single dose (Example 4, RTS4814); type: cell-based; details: Table 14; A-431 cells, 5,000 cells per well, free uptake, 2,000 nM, approximately 48 hours; RTS4814; normalized to RIBOGREEN; Yap1 mRNA relative to untreated control; * = targets amplicon region of primer probe set
Protocol: Modified oligonucleotides were designed to target a Yap1 nucleic acid and were tested for their effect on Yap1 mRNA level in vitro. The modified oligonucleotides were tested in a series of experiments that had similar culture conditions. Cultured A-431 cells at a density of 5,000 cells per well were treated using free uptake with 2,000 nM of modified oligonucleotide. After a treatment period of approximately 48 hours, RNA was isolated from the cells and Yap1 mRNA levels were measured by quantitative real-time RTPCR. Human primer probe set RTS4814 was used to measure mRNA levels. Yap1 mRNA levels were normalized to total RNA content, as measured by RIBOGREEN®. Results are presented in the tables below as percent control of the amount of Yap1 mRNA relative to untreated control cells (% UTC). The modified oligonucleotides with percent control values marked with an asterisk (*) target the amplicon region of the primer probe set. Additional assays may be used to measure the potency and efficacy of the modified oligonucleotides targeting the amplicon region.
The newly designed modified oligonucleotides in the Tables below were designed as 3-10-3 cEt gapmers. The gapmers are 16 nucleosides in length, wherein the central gap segment comprises of ten 2′-deoxynucleosides and is flanked by wing segments on the 5′ direction and the 3′ direction comprising three nucleosides each. Each nucleoside in the 5′ wing segment and each nucleoside in the 3′ wing segment has a cEt sugar modification. The internucleoside linkages throughout each gapmer are phosphorothioate (P═S) linkages. All cytosine residues throughout each gapmer are 5-methylcytosines.
“Start site” indicates the 5′-most nucleoside to which the gapmer is targeted in the human gene sequence. “Stop site” indicates the 3′-most nucleoside to which the gapmer is targeted human gene sequence. […] Activity of the modified oligonucleotide may be defined in a different experiment.

Substance	YAP1 (% UTC)
1075488 (antisense k[5mC]*kA*kG*dA*dA*dT*dA*dA*dG*dG*dG*dA*dG*kA*kT*k[5mC]) [Compound 1075488]	56
1075968 (kT*kA*kT*dT*dT*dA*dA*dG*d[5mC]*d[5mC]*dA*dA*dA*k[5mC]*k[5mC]*kG; antisense) [Compound 1075968]	5
1075296 (antisense kA*kT*kT*dA*dT*dA*dA*dG*d[5mC]*dT*dG*dT*dG*kT*kT*kG) [Compound 1075296]	18
1075520 (k[5mC]*k[5mC]*k[5mC]*d[5mC]*dA*dA*d[5mC]*dA*dA*d[5mC]*dT*dG*d[5mC]*kT*kA*kA; antisense) [Compound 1075520]	77
1074368 (antisense kG*kA*kT*dA*dG*dT*dA*dT*d[5mC]*dA*d[5mC]*d[5mC]*dT*kG*kT*kA) [Compound 1074368]	8
1074304 (antisense k[5mC]*kT*kG*d[5mC]*d[5mC]*dG*dA*dA*dG*d[5mC]*dA*dG*dT*kT*k[5mC]*kT) [Compound 1074304]	109
1075008 (antisense kT*kA*kA*dT*d[5mC]*dG*dA*dA*d[5mC]*dA*dT*dT*dG*kT*kG*kT) [Compound 1075008]	61
1075552 (kG*kA*kT*dT*dA*dT*dA*dA*d[5mC]*dA*dT*dG*d[5mC]*kT*kG*kT; antisense) [Compound 1075552]	74
1074240 (antisense k[5mC]*kT*kG*dG*d[5mC]*dA*dG*dA*dG*dG*dT*dA*d[5mC]*kA*kT*k[5mC]) [Compound 1074240]	29
1074528 (k[5mC]*kT*kG*d[5mC]*d[5mC]*d[5mC]*d[5mC]*dA*dA*d[5mC]*d[5mC]*dA*dG*kA*kT*kT; antisense) [Compound 1074528]	25
1075872 (k[5mC]*kA*kA*dT*dT*dA*dT*dG*dA*d[5mC]*dA*dA*dA*k[5mC]*kA*kG; antisense) [Compound 1075872]	21

same assay, conditions: Table 15; A-431 cells, 5,000 cells per well, free uptake, 2,000 nM, approximately 48 hours; RTS4814; normalized to RIBOGREEN; Yap1 mRNA relative to untreated control; * = targets amplicon region of primer probe set

Substance	YAP1 (% UTC)
1076385 (kA*kT*kA*dT*dA*dA*dG*dG*dG*dA*d[5mC]*dT*dT*kG*k[5mC]*kT; antisense) [Compound 1076385]	32
1075937 (kA*k[5mC]*kT*dT*dA*dT*dA*dT*dT*d[5mC]*dT*d[5mC]*dT*k[5mC]*k[5mC]*kG; antisense) [Compound 1075937]	36
1074337 (antisense kG*kA*kG*dT*d[5mC]*d[5mC]*d[5mC]*dA*d[5mC]*d[5mC]*dA*dT*d[5mC]*k[5mC]*kT*kG) [Compound 1074337]	10
1074849 (kT*kG*kT*dT*dA*dT*dG*dA*dT*dA*dG*dG*d[5mC]*kA*k[5mC]*kA; antisense) [Compound 1074849]	18
1076161 (kT*k[5mC]*kT*dT*dA*dT*dA*d[5mC]*dT*dA*dG*dT*dA*k[5mC]*kG*kG; antisense) [Compound 1076161]	14
1075969 (kG*kT*kA*dT*dT*dT*dA*dA*dG*d[5mC]*d[5mC]*dA*dA*kA*k[5mC]*k[5mC]; antisense) [Compound 1075969]	11
1075457 (antisense kA*kG*kT*dA*dA*dT*dA*dT*dG*dT*dA*d[5mC]*dA*kT*kG*kG) [Compound 1075457]	5
1074369 (antisense kT*kG*kA*dT*dA*dG*dT*dA*dT*d[5mC]*dA*d[5mC]*d[5mC]*kT*kG*kT) [Compound 1074369]	19

same assay, conditions: Table 16; A-431 cells, 5,000 cells per well, free uptake, 2,000 nM, approximately 48 hours; RTS4814; normalized to RIBOGREEN; Yap1 mRNA relative to untreated control cells

Substance	YAP1 (% UTC)
1074242 (antisense kA*kG*kA*dA*dG*dA*dT*dG*dT*d[5mC]*dT*dT*dT*kG*k[5mC]*k[5mC]) [Compound 1074242]	56
1074338 (antisense kG*kG*kA*dT*dT*dT*dT*dG*dA*dG*dT*d[5mC]*d[5mC]*k[5mC]*kA*k[5mC]) [Compound 1074338]	77
1076290 (k[5mC]*kT*k[5mC]*d[5mC]*dA*dA*d[5mC]*dG*dG*dA*d[5mC]*dA*dA*k[5mC]*kT*kT; antisense) [Compound 1076290]	28
1075682 (kG*kA*kT*dA*dA*dT*dT*dA*dT*dT*dA*d[5mC]*d[5mC]*k[5mC]*k[5mC]*kT; antisense) [Compound 1075682]	35
1076418 (kT*kA*kT*dA*dA*dT*dA*dA*d[5mC]*d[5mC]*d[5mC]*dA*dT*kT*kG*kT; antisense) [Compound 1076418]	63
1075106 (antisense k[5mC]*kA*kA*dA*dT*dT*dA*dT*dA*dA*dG*dG*dT*k[5mC]*k[5mC]*kT) [Compound 1075106]	10
1074274 (antisense kG*kT*kT*d[5mC]*dT*dT*dA*dT*dG*dG*dT*dT*dT*kA*kT*kA) [Compound 1074274]	4
1074818 (kA*k[5mC]*kT*dG*dA*dA*dT*dA*dT*dT*dG*d[5mC]*d[5mC]*kA*k[5mC]*k[5mC]; antisense) [Compound 1074818]	12
1075906 (k[5mC]*k[5mC]*kT*d[5mC]*dA*dA*dT*dA*d[5mC]*dA*dG*dA*dT*kG*kA*kA; antisense) [Compound 1075906]	39

same assay, conditions: Table 17; A-431 cells, 5,000 cells per well, free uptake, 2,000 nM, approximately 48 hours; RTS4814; normalized to RIBOGREEN; Yap1 mRNA relative to untreated control cells

Substance	YAP1 (% UTC)
1076035 (kG*kT*kA*dA*dT*dT*dA*dG*dA*dA*dA*d[5mC]*dT*kT*kG*kG; antisense) [Compound 1076035]	9
1076131 (kT*kA*kT*dT*dA*dT*dG*dA*dG*dG*dA*d[5mC]*dT*kG*kA*kT; antisense) [Compound 1076131]	23
1075619 (k[5mC]*kT*kT*dA*dG*dA*dT*dA*d[5mC]*dT*dA*d[5mC]*dT*kT*kT*kG; antisense) [Compound 1075619]	54
1074115 (antisense kA*kG*kA*dA*d[5mC]*dT*dT*dT*dT*dT*d[5mC]*d[5mC]*d[5mC]*kT*k[5mC]*k[5mC]) [Compound 1074115]	33
1075331 (kG*kA*kT*dA*dA*dA*d[5mC]*dA*d[5mC]*dT*dG*d[5mC]*dA*kG*kA*kG; antisense) [Compound 1075331]	33

same assay, conditions: Yap1 mRNA remaining as percent of untreated control; 3-10-3 cEt gapmers; A-431 cells; Table 36

Substance	YAP1 (% UTC)
1075094 (kG*kA*kT*dA*dA*dA*dT*dG*dT*dA*dA*d[5mC]*dT*kA*kG*k[5mC]; antisense) [compound 1075094]	10
1074710 (antisense k[5mC]*kT*k[5mC]*dT*dA*dG*dA*dA*d[5mC]*dA*dG*d[5mC]*dT*kG*k[5mC]*k[5mC]) [compound 1074710]	42
1075862 (antisense k[5mC]*kT*kA*dA*dT*dA*dA*d[5mC]*dT*dT*dG*dT*d[5mC]*kT*kA*k[5mC]) [compound 1075862]	67
1075446 (antisense k[5mC]*kT*kA*dT*dA*dA*dA*dT*d[5mC]*d[5mC]*dT*d[5mC]*dA*kT*kG*kT) [compound 1075446]	87
1076502 (k[5mC]*kA*kA*dA*dG*dT*dA*dA*dG*dT*dG*dA*dG*k[5mC]*k[5mC]*k[5mC]; antisense) [compound 1076502]	17

same assay, conditions: Yap1 mRNA remaining as percent of untreated control; 3-10-3 cEt gapmers; A-431 cells; Table 37

Substance	YAP1 (% UTC)
1075895 (antisense kA*k[5mC]*kT*d[5mC]*dG*dA*dA*dA*dG*d[5mC]*dT*dG*dG*kG*k[5mC]*k[5mC]) [compound 1075895]	38
1074615 (DNA kT*kT*k[5mC]*dA*dT*dA*dG*d[5mC]*dT*dT*dA*dT*dA*kT*kT*kG; antisense) [compound 1074615]	8
1074359 (antisense kT*kT*k[5mC]*dG*dA*dG*dG*dG*dA*d[5mC]*dA*d[5mC]*dT*kG*kT*kA) [compound 1074359]	18
1074583 (DNA kG*kT*kA*dA*dA*d[5mC]*d[5mC]*dA*d[5mC]*dT*dA*dT*dA*kA*kA*kG; antisense) [compound 1074583]	30
1074711 (antisense kA*k[5mC]*kT*d[5mC]*dT*dA*dG*dA*dA*d[5mC]*dA*dG*d[5mC]*kT*kG*k[5mC]) [compound 1074711]	28

same assay, conditions: table after Table 37, headed TABLE 32 (gapmers targeting SEQ ID NO.: 3); A-431 cells, free uptake, 2,000 nM, approximately 48 hours, RTS4814

Substance	YAP1 (% UTC)
1074886 (k[5mC]*kA*kG*dG*dG*d[5mC]*dT*dA*dA*d[5mC]*dT*d[5mC]*d[5mC]*kT*kG*k[5mC]; antisense) [compound 1074886]	104
